According to patent publication US10688200B2, “Urea-based prostate specific membrane antigen (PSMA) inhibitors for imaging and therapy” (Five Eleven Pharma Inc., priority 2015, dated 2020):

Experiments:
PSMA [1] = test: In vitro autoradiography of LNCaP tumor and mouse kidney sections; assay type: binding; conditions: incubation with 2-PMPA
Description: LNCaP tumor and mouse kidneys were cut at 20 μm on a cryostat, thaw-mounted onto slides. Slides are incubated with radiotracers (3 μCi/ml) in PBS for 30 min and washed with PBS twice for 3 min each. After drying, the slides put into a plate for exposure for 30 min. Images were acquired with Typhoon FLA 7000 (GE Healthcare).
To validate the PSMA binding, in vitro autoradiography studies using LNCaP tumor and mouse kidney sections were carried out.
FIGS. 2A-2K show in vitro autoradiography of LNCaP tumor (left side) and mouse kidney sections (right side). […] These new PSMA target compounds, display high uptake in the sections. [^68Ga]1a (PSMA-11) was used as a control.

[2] = test system: PSMA expressing LNCaP cells; test: Cell uptake comparisons in LNCaP cells (FIG. 1); assay type: cell-based, human; conditions: 1 hr at 37° C.
Description: Cell uptake studies were performed using PSMA expressing LNCaP cells. Cells were grown in 6 well plates for 2 days. After incubation with ^68Ga-labeled ligands for 1 hr at 37° C., media were removed. After washing twice with 3 mL PBS buffer, cells were lysed with 0.1 N NaOH. Lysed cells were wiped with filter paper and radioactivity in filter paper was measured with a gamma counter.
The LNCaP cells over express PSMA receptor binding sites, the level of binding, % uptake/well, was an indicator of PSMA binding, the higher the better. [^68Ga]1a, a known PSMA imaging agent (PSMA-11), was used as a control.

[3] = Biodistribution of radiotracers in normal mice; assay type: in vivo, mouse; conditions: normal male mice
Procedure, shortened: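 Male CD-1 mice received 35 μCi [^68Ga] radiotracer (0.2 nmole ligand) by tail vein. Four mice per time point sacrificed at 2, 30, 60 and 120 min p.i.; organs and blood weighed and gamma counted. %ID/g calculated against a standard dilution of the dose, decay-corrected.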

PSMA [4] = target: T1, PSMA (Homo sapiens, UniProt Q04609); test: In vitro binding signals of 68Ga labeled ligands in LNCaP tumor homogenates; conditions: Ga-68 radiolabeled ligands; for Nonspecific binding (NSB): with 1a (PSMA11) 10 μM
T1 construct: 100 μL of freshly harvested PSMA cells; endogenous in cells; host or cells: 'PSMA cells' in the method
T1 sequence (Q04609 whole entry): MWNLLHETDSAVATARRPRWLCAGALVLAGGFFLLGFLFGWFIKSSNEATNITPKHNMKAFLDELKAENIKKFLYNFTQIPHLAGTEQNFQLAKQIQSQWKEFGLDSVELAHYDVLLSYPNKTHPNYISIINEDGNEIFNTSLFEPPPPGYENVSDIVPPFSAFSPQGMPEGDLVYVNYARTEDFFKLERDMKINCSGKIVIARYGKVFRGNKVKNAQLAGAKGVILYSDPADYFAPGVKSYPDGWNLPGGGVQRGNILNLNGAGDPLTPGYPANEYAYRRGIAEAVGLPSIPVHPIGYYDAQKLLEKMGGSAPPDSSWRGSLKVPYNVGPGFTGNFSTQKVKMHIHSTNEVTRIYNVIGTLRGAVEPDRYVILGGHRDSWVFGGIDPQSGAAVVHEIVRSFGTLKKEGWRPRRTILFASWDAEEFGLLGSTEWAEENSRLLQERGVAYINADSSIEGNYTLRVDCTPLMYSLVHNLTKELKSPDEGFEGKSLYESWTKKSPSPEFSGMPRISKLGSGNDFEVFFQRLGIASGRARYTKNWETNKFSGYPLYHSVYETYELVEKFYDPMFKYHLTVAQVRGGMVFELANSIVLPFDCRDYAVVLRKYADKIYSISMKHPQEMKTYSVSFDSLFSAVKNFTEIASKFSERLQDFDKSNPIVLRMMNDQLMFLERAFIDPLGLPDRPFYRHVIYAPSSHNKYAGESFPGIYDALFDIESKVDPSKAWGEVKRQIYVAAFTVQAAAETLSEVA

With “2-(3-mercaptopropyl)pentane-dioic acid [Compound 2-PMPA]” the “Blocking of radiotracer binding in autoradiography, in words” value (PSMA [1]) was “blocked radiotracers' binding to tumor and kidney”.
For `O=C(O)CCc1ccc2c(n1)C[N+]13CC[N+]45CC(=O)[O][68Ga-3]14([O]C(=O)C3)([O]2)[O]c1ccc(CCC(=O)NCCCCCC(=O)NCCCC[C@H](NC(=O)N[C@@H](CCC(=O)O)C(=O)O)C(=O)O)nc1C5` (some centres unmarked) [[^68Ga]2], the “Cell uptake (% uptake/well), in words” value [2] was “low cell uptakes”, the “Biodistribution: Blood” value ([3]; 2 min) was 8.92 ± 0.75 % dose/g and the “Biodistribution: Bone” value ([3]; 2 min) was 2.18 ± 0.08 % dose/g. For the same compound, the “Biodistribution: Brain” value ([3]; 2 min) was 0.24 ± 0.02 % dose/g, the “Biodistribution: Heart” value ([3]; 2 min) was 3.40 ± 0.45 % dose/g and the “Biodistribution: Kidney” value ([3]; 2 min) was 56.4 ± 8.05 % dose/g. For the same compound, the “Biodistribution: Liver” value ([3]; 2 min) was 2.01 ± 0.08 % dose/g, the “Biodistribution: Lung” value ([3]; 2 min) was 5.18 ± 0.52 % dose/g and the “Biodistribution: Muscle” value ([3]; 2 min) was 2.00 ± 0.25 % dose/g. The “Biodistribution: Pancreas” value ([3]; 2 min) was 1.85 ± 0.17 % dose/g, the “Biodistribution: Skin” value ([3]; 2 min) was 3.07 ± 0.05 % dose/g and the “Biodistribution: Spleen” value ([3]; 2 min) was 3.57 ± 0.20 % dose/g. The “Biodistribution: Blood” value ([3]; 30 min) was 1.18 ± 0.15 % dose/g, the “Biodistribution: Bone” value ([3]; 30 min) was 0.48 ± 0.02 % dose/g and the “Biodistribution: Brain” value ([3]; 30 min) was 0.05 ± 0.00 % dose/g. For the same compound, the “Biodistribution: Heart” value ([3]; 30 min) was 0.51 ± 0.03 % dose/g, the “Biodistribution: Kidney” value ([3]; 30 min) was 108 ± 8.66 % dose/g and the “Biodistribution: Liver” value ([3]; 30 min) was 0.33 ± 0.01 % dose/g. The “Biodistribution: Lung” value ([3]; 30 min) was 1.07 ± 0.12 % dose/g, the “Biodistribution: Muscle” value ([3]; 30 min) was 0.46 ± 0.03 % dose/g and the “Biodistribution: Pancreas” value ([3]; 30 min) was 0.76 ± 0.12 % dose/g. The “Biodistribution: Skin” value ([3]; 30 min) was 0.88 ± 0.08 % dose/g, the “Biodistribution: Spleen” value ([3]; 30 min) was 1.33 ± 0.08 % dose/g and the “Biodistribution: Blood” value ([3]; 60 min) was 0.89 ± 0.10 % dose/g. For the same compound, the “Biodistribution: Bone” value ([3]; 60 min) was 0.43 ± 0.01 % dose/g, the “Biodistribution: Brain” value ([3]; 60 min) was 0.03 ± 0.00 % dose/g and the “Biodistribution: Heart” value ([3]; 60 min) was 0.33 ± 0.02 % dose/g. The “Biodistribution: Kidney” value ([3]; 60 min) was 67.8 ± 15.57 % dose/g, the “Biodistribution: Liver” value ([3]; 60 min) was 0.25 ± 0.06 % dose/g and the “Biodistribution: Lung” value ([3]; 60 min) was 0.72 ± 0.16 % dose/g. The “Biodistribution: Muscle” value ([3]; 60 min) was 0.24 ± 0.01 % dose/g, the “Biodistribution: Pancreas” value ([3]; 60 min) was 0.44 ± 0.08 % dose/g and the “Biodistribution: Skin” value ([3]; 60 min) was 0.46 ± 0.10 % dose/g. The “Biodistribution: Spleen” value ([3]; 60 min) was 0.84 ± 0.24 % dose/g, the “Biodistribution: Blood” value ([3]; 120 min) was 0.78 ± 0.04 % dose/g and the “Biodistribution: Bone” value ([3]; 120 min) was 0.60 ± 0.03 % dose/g. The “Biodistribution: Brain” value ([3]; 120 min) was 0.03 ± 0.01 % dose/g, the “Biodistribution: Heart” value ([3]; 120 min) was 0.28 ± 0.02 % dose/g and the “Biodistribution: Kidney” value ([3]; 120 min) was 26.9 ± 6.13 % dose/g. For the same compound, the “Biodistribution: Liver” value ([3]; 120 min) was 0.22 ± 0.01 % dose/g, the “Biodistribution: Lung” value ([3]; 120 min) was 0.45 ± 0.01 % dose/g and the “Biodistribution: Muscle” value ([3]; 120 min) was 0.18 ± 0.01 % dose/g. For the same compound, the “Biodistribution: Pancreas” value ([3]; 120 min) was 0.30 ± 0.04 % dose/g, the “Biodistribution: Skin” value ([3]; 120 min) was 0.29 ± 0.03 % dose/g and the “Biodistribution: Spleen” value ([3]; 120 min) was 0.36 ± 0.04 % dose/g. The “Specific binding (SB) SB = TB − NSB” value (PSMA [4]) was “lower specific binding” and the “Nonspecific binding (NSB)” value (PSMA [4]) was “high nonspecific binding”.
In the case of `O=C(O)CC[C@H](NC(=O)N[C@@H](CCCCNC(=O)CCCCCNC(=O)CCc1ccc2c(n1)C[N+]13CC[N+]45CC(=O)[O][68Ga-3]14([O]C(=O)C3)([O]2)[O]c1ccc(CCC(=O)NCCCCCC(=O)NCCCC[C@H](NC(=O)N[C@@H](CCC(=O)O)C(=O)O)C(=O)O)nc1C5)C(=O)O)C(=O)O` (some centres unmarked) [[^68Ga]3], the “Cell uptake (% uptake/well), in words” value [2] is reported as “low cell uptakes”, the “Biodistribution: Blood” value ([3]; 2 min) is reported as 8.94 ± 1.57 % dose/g and the “Biodistribution: Bone” value ([3]; 2 min) is reported as 3.53 ± 0.96 % dose/g. For the same compound, the “Biodistribution: Brain” value ([3]; 2 min) was 0.33 ± 0.06 % dose/g, the “Biodistribution: Heart” value ([3]; 2 min) was 4.34 ± 1.15 % dose/g and the “Biodistribution: Kidney” value ([3]; 2 min) was 56.2 ± 6.53 % dose/g. The “Biodistribution: Liver” value ([3]; 2 min) was 3.42 ± 0.11 % dose/g, the “Biodistribution: Lung” value ([3]; 2 min) was 7.49 ± 2.71 % dose/g and the “Biodistribution: Muscle” value ([3]; 2 min) was 2.02 ± 0.74 % dose/g. For the same compound, the “Biodistribution: Pancreas” value ([3]; 2 min) was 2.89 ± 0.61 % dose/g, the “Biodistribution: Skin” value ([3]; 2 min) was 2.63 ± 0.48 % dose/g and the “Biodistribution: Spleen” value ([3]; 2 min) was 5.14 ± 1.49 % dose/g. The “Biodistribution: Blood” value ([3]; 30 min) was 3.19 ± 0.72 % dose/g, the “Biodistribution: Bone” value ([3]; 30 min) was 1.70 ± 0.20 % dose/g and the “Biodistribution: Brain” value ([3]; 30 min) was 0.09 ± 0.01 % dose/g. The “Biodistribution: Heart” value ([3]; 30 min) was 0.93 ± 0.22 % dose/g, the “Biodistribution: Kidney” value ([3]; 30 min) was 94.4 ± 13.7 % dose/g and the “Biodistribution: Liver” value ([3]; 30 min) was 1.71 ± 0.05 % dose/g. The “Biodistribution: Lung” value ([3]; 30 min) was 1.38 ± 0.17 % dose/g, the “Biodistribution: Muscle” value ([3]; 30 min) was 1.53 ± 0.68 % dose/g and the “Biodistribution: Pancreas” value ([3]; 30 min) was 1.36 ± 0.32 % dose/g. The “Biodistribution: Skin” value ([3]; 30 min) was 1.48 ± 0.34 % dose/g, the “Biodistribution: Spleen” value ([3]; 30 min) was 4.35 ± 0.37 % dose/g and the “Biodistribution: Blood” value ([3]; 60 min) was 1.52 ± 0.44 % dose/g. For the same compound, the “Biodistribution: Bone” value ([3]; 60 min) was 2.34 ± 1.08 % dose/g, the “Biodistribution: Brain” value ([3]; 60 min) was 0.06 ± 0.04 % dose/g and the “Biodistribution: Heart” value ([3]; 60 min) was 0.82 ± 0.22 % dose/g. For the same compound, the “Biodistribution: Kidney” value ([3]; 60 min) was 61.3 ± 5.97 % dose/g, the “Biodistribution: Liver” value ([3]; 60 min) was 1.81 ± 0.14 % dose/g and the “Biodistribution: Lung” value ([3]; 60 min) was 1.29 ± 0.31 % dose/g. The “Biodistribution: Muscle” value ([3]; 60 min) was 1.01 ± 0.29 % dose/g, the “Biodistribution: Pancreas” value ([3]; 60 min) was 1.34 ± 0.45 % dose/g and the “Biodistribution: Skin” value ([3]; 60 min) was 2.35 ± 0.34 % dose/g. For the same compound, the “Biodistribution: Spleen” value ([3]; 60 min) was 1.75 ± 0.17 % dose/g, the “Biodistribution: Blood” value ([3]; 120 min) was 1.00 ± 0.30 % dose/g and the “Biodistribution: Bone” value ([3]; 120 min) was 3.56 ± 1.08 % dose/g. For the same compound, the “Biodistribution: Brain” value ([3]; 120 min) was 0.05 ± 0.02 % dose/g, the “Biodistribution: Heart” value ([3]; 120 min) was 0.84 ± 0.20 % dose/g and the “Biodistribution: Kidney” value ([3]; 120 min) was 30.3 ± 8.87 % dose/g. The “Biodistribution: Liver” value ([3]; 120 min) was 2.00 ± 0.20 % dose/g, the “Biodistribution: Lung” value ([3]; 120 min) was 0.97 ± 0.12 % dose/g and the “Biodistribution: Muscle” value ([3]; 120 min) was 1.13 ± 0.50 % dose/g. For the same compound, the “Biodistribution: Pancreas” value ([3]; 120 min) was 1.21 ± 0.19 % dose/g, the “Biodistribution: Skin” value ([3]; 120 min) was 1.22 ± 0.20 % dose/g and the “Biodistribution: Spleen” value ([3]; 120 min) was 1.71 ± 0.56 % dose/g. The “Specific binding (SB) SB = TB − NSB” value (PSMA [4]) was “lower specific binding” and the “Nonspecific binding (NSB)” value (PSMA [4]) was “high nonspecific binding”.
